This test concerns the target PKBα (Homo sapiens, UniProt P31749). Briefly: PKB kinase assay (P33-labeled ATP, synthetic peptide substrate, filter plate). The format is biochemical. As to conditions: PKBα enzyme (full length or kinase domain with pleckstrin domain deleted). The text has this:
The kinase assay for evaluating PKB activity comprises active PKB enzymes, a PKB specific substrate, and P^33-labeled ATP. Two forms of PKBα enzymes were used, the full length PKBα and a kinase domain of PKBα with pleckstrin domain (amino acids 1-117) deleted. Both PKB enzymes were obtained from Upstate cell signaling solutions (Cat.# 14-276 and 14-341). The PKB substrate used is a synthetic peptide (ARKRERTYSFGHHA (SEQ ID NO: 1)) as described in Obata et al., J. Biol. Chem. 275 (46), 36108-36115 (2000). The phosphorylated substrate was captured by a phosphocellulose membrane filter plate (MILLIPORE) and measured by a Wallac Microbeta liquid scintillation counter (Perkin Elmer). Table 1 provides the IC50 values obtained for each of the examples with respect to PKBα.

SMILES strings stand for the structures. pIC50: −log10 of the molar value. Counter-ions that a name gives are not always drawn.

Sequence of PKBα (P31749 118-480 limits assumed): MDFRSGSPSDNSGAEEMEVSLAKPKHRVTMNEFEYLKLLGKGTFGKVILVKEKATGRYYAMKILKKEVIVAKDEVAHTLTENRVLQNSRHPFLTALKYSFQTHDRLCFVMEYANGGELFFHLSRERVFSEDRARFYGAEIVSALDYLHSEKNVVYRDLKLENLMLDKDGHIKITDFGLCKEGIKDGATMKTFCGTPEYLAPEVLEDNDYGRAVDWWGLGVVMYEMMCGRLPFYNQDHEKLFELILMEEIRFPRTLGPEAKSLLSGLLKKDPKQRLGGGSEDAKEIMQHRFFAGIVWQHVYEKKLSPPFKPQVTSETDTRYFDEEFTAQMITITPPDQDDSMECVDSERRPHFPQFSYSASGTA

In turn, `N[C@H](CNc1nnc(-c2ccc3cnccc3c2)o1)Cc1ccc(C(F)(F)F)cc1` [Example 1, N-((S)-2-amino-3-(4-(trifluoromethyl)phenyl)propyl)-5-(isoquinolin-6-yl)-1,3,4-oxadiazol-2-amine] gave a pIC50 of 6.00 to 7.30.

Molecule `N[C@H](CNc1nsc(-c2ccc3c(c2)CC(=O)N3)n1)Cc1ccc(C(F)(F)F)cc1` [Example 47, 5-(3-((S)-2-Amino-3-(4-(trifluoromethyl)phenyl)propylamino)-1,2,4-thiadiazol-5-yl)indolin-2-one] gave a pIC50 of 6.00 to 7.30.

On to `N[C@H](CNc1cnc(-c2ccc3cnccc3c2)s1)Cc1ccc(C(F)(F)F)cc1` [Example 41, N-((S)-2-Amino-3-(4-(trifluoromethyl)phenyl)propyl)-2-(isoquinolin-6-yl)thiazol-5-amine trifluoroacetate], for which the pIC50 is 6.00 to 7.30.

`N[C@@H](Cc1ccc(C(F)(F)F)cc1)Cn1cc(-c2ccc3cnccc3c2)cn1` [Example 65, (2S)-1-(4-(Isoquinolin-6-yl)-1H-pyrazol-1-yl)-3-(4-(trifluoromethyl)phenyl)-propan-2-amine] showed a pIC50 of 6.00 to 7.30.

`N[C@H](CNc1cc(-c2ccc3cnccc3c2)no1)Cc1ccc(Cl)cc1` [Example 11, N-((S)-2-Amino-3-(4-chlorophenyl)propyl)-3-(isoquinolin-6-yl)isoxazol-5-amine] had a pIC50 of more than 7.30.

`N[C@H](CNc1cc(-c2ccc3cnccc3c2)on1)Cc1ccc(C(F)(F)F)cc1` [Example 20, N-((S)-2-Amino-3-(4-(trifluoromethyl)phenyl)propyl)-5-(isoquinolin-6-yl)isoxazol-3-amine] gave a pIC50 of 6.00 to 7.30.

As to `N[C@H](CCc1cc(-c2ccc3cnccc3c2)no1)Cc1cccc(C(F)(F)F)c1` [Example 29, (2R)-4-(3-(Isoquinolin-6-yl)isoxazol-5-yl)-1-(3-(trifluoromethyl)phenyl)butan-2-amine], the pIC50 is 6.00 to 7.30.

As for `N[C@H](CNc1cc(-c2ccc3cnccc3c2)no1)Cc1ccc2ccccc2c1` [Example 19, N-((S)-2-Amino-3-(naphthalen-2-yl)propyl)-3-(isoquinolin-6-yl)isoxazol-5-amine], the pIC50 was 6.00 to 7.30.

On to `N[C@H](CCn1cc(-c2ccc3cnccc3c2)cn1)Cc1cccc(Cl)c1` [Example 59, (2S)-1-(3-Chlorophenyl)-4-(4-(isoquinolin-6-yl)-1H-pyrazol-1-yl)butan-2-amine], for which the pIC50 is 6.00 to 7.30.

On to `N[C@H](CCc1cn(-c2ccc3[nH]ncc3c2)nn1)Cc1ccc(C(F)(F)F)nc1` [Example 67, (2R)-4-(1-(1H-Indazol-5-yl)-1H-1,2,3-triazol-4-yl)-1-(6-(trifluoromethyl)pyridin-3-yl)butan-2-amine bistrifluoroacetate], for which the pIC50 is 6.00 to 7.30.

The molecule `N[C@H](CCc1cc(-c2ccc3cnccc3c2)no1)Cc1ccc(Cl)cc1Cl` [Example 30, (2R)-1-(2,4-Dichlorophenyl)-4-(3-(isoquinolin-6-yl)isoxazol-5-yl)butan-2-amine] showed a pIC50 of 6.00 to 7.30.

`Cc1n[nH]c2ccc(-c3cn(CC[C@@H](N)Cc4ccccc4)nn3)cc12` [Example 40, (2S)-4-(4-(3-Methyl-1H-indazol-5-yl)-1H-1,2,3-triazol-1-yl)-1-phenylbutan-2-amine] gave a pIC50 of 5.00 to 6.00.

The molecule `N[C@H](CCc1cc(-c2ccc3cnccc3c2)no1)Cc1cccc(Cl)c1` [Example 26, (2R)-1-(3-chlorophenyl)-4-(3-(isoquinolin-6-yl)isoxazol-5-yl)butan-2-amine] had a pIC50 of 6.00 to 7.30.

Take `N[C@H](CNc1cc(-c2ccc3cnccc3c2)no1)Cc1cccc(C(F)(F)F)c1` [Example 13, N-((S)-2-Amino-3-(3-(trifluoromethyl)phenyl)propyl)-3-(isoquinolin-6-yl)isoxazol-5-amine]: the pIC50 was more than 7.30.

Regarding `COc1ccc(CNc2ncc(-c3ccc4cnccc4c3)o2)cc1` [Example 6, N-(4-Methoxybenzyl)-5-(isoquinolin-6-yl)oxazol-2-amine], the negative-log IC50 (pIC50) was 5.00 to 6.00.

Source of the values: US7897619B2, “Heterocyclic modulators of PKB” (Amgen Inc., priority 2007, dated 2011).
